In patent publication US12172983B2, “EGFR inhibitors” (Blueprint Medicines Corporation, priority 2019, dated 2024):
pIC50: −log10 of the molar value. Where two headings read alike, the source gives them in different places.

How the values were obtained:
[1] = molecular target: T1, EGFR (L858R T790M C797S) (Homo sapiens, UniProt P00533, C797S/L858R/T790M); assay: Biochemical EGFR inhibition assay (Caliper mobility shift), EGFR LRTMCS mutant; conditions: inhibitory activity against EGFR LRTMCS mutant; apparent IC50; read-out: Ext Enz LRTMCS
T1 construct: purchased SignalChem E10-122VG
Outline: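 Kinase reactions proceed at 25° C. to 10%–20% conversion of total peptide, are terminated with 35 mM EDTA, and the phosphopeptide is resolved from substrate by electrophoretic mobility shift. Apparent IC50 values come from plotting percent activity against log compound concentration.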

[2] = tested on: phosphorylation of EGFR (Tyr1068) in NCI-H1975 cell line that harbors the EGFR L858R T790M mutations; assay: NCI-H1975 pEGFR AlphaLISA assay; format: cell-based; conditions: 4-5 hours incubation, read-out: Ext pEGFR H1975
Outline: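 Phospho-EGFR Tyr1068 AlphaLISA readout: lysates taken from compound-treated H1975 cells (L858R T790M EGFR) after a 4-5 h exposure at 37 °C. Cells had adhered overnight beforehand. IC50 derived by plotting % pEGFR inhibition against log compound concentration.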

[3] = Homo sapiens, NCI-H1975, inhibition of phosphorylation of mutant EGFR in NCI-H1975 cells
[4] = inhibition of phosphorylation of mutant EGFR in NCI-H1975 cells

T1 sequence (P00533 25-1210 T790M/C797S/L858R): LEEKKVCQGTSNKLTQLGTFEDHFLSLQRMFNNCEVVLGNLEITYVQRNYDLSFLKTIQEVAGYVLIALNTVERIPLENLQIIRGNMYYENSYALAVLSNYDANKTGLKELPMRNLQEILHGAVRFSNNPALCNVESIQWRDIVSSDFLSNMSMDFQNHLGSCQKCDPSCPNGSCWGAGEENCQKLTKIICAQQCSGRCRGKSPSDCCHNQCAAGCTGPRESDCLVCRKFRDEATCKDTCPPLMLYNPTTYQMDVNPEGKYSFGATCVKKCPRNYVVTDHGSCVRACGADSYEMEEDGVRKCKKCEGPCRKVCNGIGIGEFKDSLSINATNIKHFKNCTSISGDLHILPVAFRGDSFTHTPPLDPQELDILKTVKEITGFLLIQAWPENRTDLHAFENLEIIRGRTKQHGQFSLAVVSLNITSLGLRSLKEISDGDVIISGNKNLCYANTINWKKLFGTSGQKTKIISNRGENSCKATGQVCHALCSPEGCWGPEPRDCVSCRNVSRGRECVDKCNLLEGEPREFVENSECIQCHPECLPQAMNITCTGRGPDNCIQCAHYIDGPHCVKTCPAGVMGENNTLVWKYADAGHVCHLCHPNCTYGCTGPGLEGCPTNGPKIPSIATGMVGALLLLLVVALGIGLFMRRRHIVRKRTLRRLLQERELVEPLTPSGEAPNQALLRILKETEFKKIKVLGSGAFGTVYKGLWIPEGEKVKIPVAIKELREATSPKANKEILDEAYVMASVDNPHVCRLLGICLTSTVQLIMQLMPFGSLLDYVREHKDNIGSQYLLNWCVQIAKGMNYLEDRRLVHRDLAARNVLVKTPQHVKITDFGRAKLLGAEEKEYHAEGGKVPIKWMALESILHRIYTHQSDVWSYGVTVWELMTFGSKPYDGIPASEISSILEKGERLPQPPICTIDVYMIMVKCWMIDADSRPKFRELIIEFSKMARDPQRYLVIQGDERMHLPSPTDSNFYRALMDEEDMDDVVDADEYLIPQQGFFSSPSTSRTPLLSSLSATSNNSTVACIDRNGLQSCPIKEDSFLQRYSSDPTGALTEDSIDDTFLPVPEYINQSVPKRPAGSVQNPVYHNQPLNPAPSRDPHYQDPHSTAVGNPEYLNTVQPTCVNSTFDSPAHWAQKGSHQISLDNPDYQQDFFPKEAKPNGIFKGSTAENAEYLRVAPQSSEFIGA

pIC50 [1] | pIC50 [2, 3] | pIC50 [2, 4] | SMILES
≥ 7.82 | ≥ 8.00 | – | CCS(=O)(=O)C[C@H]1CN(c2ccc(C(C)C)c3cc(Nc4ccnc(N5CC[C@@](C)(O)[C@@H](F)C5)n4)ncc23)[C@@H]1C (single isomer, unassigned) [Compound 186]
7.70 to 7.82 | – | ≥ 8.00 | CO[C@@H]1[C@H](F)CN(c2nccc(Nc3cc4c(C(C)C)ccc(N5C[C@H](CS(C)(=O)=O)[C@H]5C)c4cn3)n2)C[C@@H]1O (single isomer, unassigned) [Compound 203, (3R,4R,5S)-5-fluoro-1-[4-({8-[(2R,3S)-3-(methanesulfonylmethyl)-2-methylazetidin-1-yl]-5-(propan-2-yl)isoquinolin-3-yl}amino)pyrimidin-2-yl]-4-methoxypiperidin-3-ol or (3S,4S,5R)-5-fluoro-1-[4-({8-[(2R,3S)-3-(methanesulfonylmethyl)-2-methylazetidin-1-yl]-5-(propan-2-yl)isoquinolin-3-yl}amino)pyrimidin-2-yl]-4-methoxypiperidin-3-ol]
≥ 7.82 | ≥ 8.00 | – | CC(C)c1ccc(N2CC(CS(C)(=O)=O)C2)c2cnc(Nc3ccnc(N4CC[C@](C)(O)C[C@@H]4C)n3)cc12 (single isomer, unassigned) [Compound 44, (2R,4R)-1-[4-({8-[3-(methanesulfonylmethyl)azetidin-1-yl]-5-(propan-2-yl)isoquinolin-3-yl}amino)pyrimidin-2-yl]-2,4-dimethylpiperidin-4-ol or (2S,4S)-1-[4-({8-[3-(methanesulfonylmethyl)azetidin-1-yl]-5-(propan-2-yl)isoquinolin-3-yl}amino)pyrimidin-2-yl]-2,4-dimethylpiperidin-4-ol]
≥ 7.82 | ≥ 8.00 | – | COCCO[C@@H]1CCN(c2nccc(Nc3cc4c(C(C)C)ccc(N5C[C@H](CS(C)(=O)=O)[C@H]5C)c4cn3)n2)C[C@@H]1F (single isomer, unassigned) [Compound 245]

More lines, now with the values behind:

SMILES | pIC50 [1] | pIC50 [2, 3] | pIC50 [2, 4]
CN[C@H]1CCN(c2nccc(Nc3cc4c(C(C)C)ccc(N5C[C@H](CS(C)(=O)=O)[C@H]5C)c4cn3)n2)CC1(F)F (single isomer, unassigned) [Compound 310, N-{2-[(4R)-3,3-difluoro-4-(methylamino)piperidin-1-yl]pyrimidin-4-yl}-8-[(2R,3S)-3-(methanesulfonylmethyl)-2-methylazetidin-1-yl]-5-(propan-2-yl)isoquinolin-3-amine or N-{2-[(4S)-3,3-difluoro-4(methylamino)piperidin-1-yl]pyrimidin-4-yl}-8-[(2R,3S)-3-(methanesulfonylmethyl)-2-methylazetidin-1-yl]-5-(propan-2-yl)isoquinolin-3-amine] | ≥ 7.82 | – | ≥ 8.00
CC(C)c1ccc(N2CC(CS(C)(=O)=O)C2)c2cnc(Nc3ccnc(N4CC[C@@](F)([C@@H](C)O)C4)n3)cc12 (single isomer, unassigned) [Compound 59, (1R)-1-[(3S)-3-fluoro-1-[4-({8-[3-(methanesulfonylmethyl)azetidin-1-yl]-5-(propan-2-yl)isoquinolin-3-yl}amino)pyrimidin-2-yl]pyrrolidin-3-yl]ethan-1-ol or (1S)-1-[(3R)-3-fluoro-1-[4-({8-[3-(methanesulfonylmethyl)azetidin-1-yl]-5-(propan-2-yl)isoquinolin-3-yl}amino)pyrimidin-2-yl]pyrrolidin-3-yl]ethan-1-ol] | ≥ 7.82 | 7.70 to 8.00 | –
CCS(=O)(=O)CC1CN(c2ccc(C(C)C)c3cc(Nc4ccnc(N5CC[C@@H](OC)[C@@H](F)C5)n4)ncc23)C1 [Compound 261, 8-{3-[(ethanesulfonyl)methyl]azetidin-1-yl}-N-{2-[(3S,4R)-3-fluoro-4-methoxypiperidin-1-yl]pyrimidin-4-yl}-5-(propan-2-yl)isoquinolin-3-amine] | ≥ 7.82 | ≥ 8.00 | –
